Reference: patent publication US10533012B2, “(R)-pirlindole and its pharmaceutically acceptable salts for use in medicine” (TECNIMEDE SOCIEDADE TECNICO-MEDICINAL S.A., priority 2014, dated 2020)

Molecular target: T1, human α2A adrenergic receptor (Homo sapiens, UniProt P08913)
T1 construct: expressed in transfected cells; host or cells: CHO (Chinese hamster ovary) cells
T1 sequence (P08913 1-465): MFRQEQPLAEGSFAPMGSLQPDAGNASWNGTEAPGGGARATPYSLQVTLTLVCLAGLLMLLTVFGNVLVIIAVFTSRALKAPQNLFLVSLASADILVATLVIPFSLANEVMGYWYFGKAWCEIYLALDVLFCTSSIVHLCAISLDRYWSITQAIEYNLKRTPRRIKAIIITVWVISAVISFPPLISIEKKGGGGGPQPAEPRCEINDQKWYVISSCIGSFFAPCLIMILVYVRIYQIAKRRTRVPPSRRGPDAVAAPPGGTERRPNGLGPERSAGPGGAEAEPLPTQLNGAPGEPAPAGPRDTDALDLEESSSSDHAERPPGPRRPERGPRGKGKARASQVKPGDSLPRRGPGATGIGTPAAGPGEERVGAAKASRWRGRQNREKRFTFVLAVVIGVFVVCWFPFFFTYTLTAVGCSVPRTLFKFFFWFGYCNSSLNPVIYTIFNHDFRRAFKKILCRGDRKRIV
Assay: functional α2A adrenergic receptor antagonism assay in CHO cells (morphological response, versus agonist UK-14304)
Format: cell-based
Conditions: for inhibition at 10 µM: CHO, 100 minus % maximum agonist activity; for % Maximum Agonist Activity (percentage of maximum agonist activity induced by UK-14304): CHO cells expressing human α2A receptor, reading 6 minutes after addition
Protocol: The functional α2A adrenergic receptor antagonism assay was carried out in a platform in which the morphological response of CHO (Chinese hamster ovary) cells expressing α2A receptors was assessed. The functional assay was performed using as test items the (R)-pirlindole and the (rac)-pirlindole.
The CHO cells, expressing the human α2A adrenergic receptor were plated the day before the experiment in an adequate culture medium. The compounds were added to the wells and readings were taken 6 minutes later. Responses from the samples were compared to control responses to assess agonist or antagonist activity. The percentage of maximal activity (% Maximum Activity) translates the percentage of agonist activity induced by the α2A agonist, UK-14304 (5-Bromo-N-(2-imidazolin-2-yl)-6-quinoxalinamine, 5-Bromo-N-(4,5-dihydro-1H-imidazol-2-yl)-6-quinoxalinamine, brimonidine) commercialized by the company Sigma-Aldrich.

Structure (SMILES)	antagonist activity on α2A adrenergic receptors, times less than (R)-pirlindole (10 μM, ratio of inhibition versus (R)-pirlindole) [times]	inhibition at 10 µM (test compound 10 μM) [%]	% Maximum Agonist Activity (percentage of maximum agonist activity induced by UK-14304) (test compound 1 μM) [%]	% Maximum Agonist Activity (percentage of maximum agonist activity induced by UK-14304) (test compound 5 μM) [%]	% Maximum Agonist Activity (percentage of maximum agonist activity induced by UK-14304) (test compound 10 μM) [%]
Cc1ccc2c(c1)c1c3n2CCNC3CCC1 (racemic) [(rac)-pirlindole, 2,3,3a,4,5,6-hexahydro-8 methyl-1H-pyrazino [3,2,1-j, k] carbazole]	~4	11	98.47	96.50	89.02
Cc1ccc2c(c1)c1c3n2CCN[C@@H]3CCC1 [(R)-pirlindole]		40.3	107.76	87.37	59.72
